Test results published in ChEMBL document CHEMBL1149459, “Partial structures of ketoconazole as modulators of the large conductance calcium-activated potassium channel (BK(Ca))” (Bioorg Med Chem Lett, 2006).

What was measured:
[1] = biological target: T1, Large conductance calcium-activated potassium channel (Bos taurus) (UniProt Q28204+Q28067); test: Inhibition of large conductance calcium-activated potassium channel in bovine smooth muscle cells at 10 uM; type: functional, cell-based
[2] = biological target: T1, Large conductance calcium-activated potassium channel (Bos taurus); test: Inhibition of large conductance calcium-activated potassium channel in bovine smooth muscle cells at 30 uM; type: functional, cell-based

Row | SMILES | inhibition [1] | inhibition [2]
1 | Clc1ccc([C@@]2(Cn3ccnc3)OC[C@H](COc3ccc(N4CCCCC4)cc3)O2)c(Cl)c1 | 80% | –
2 | Cc1ccc(S(=O)(=O)OC[C@H]2CO[C@](Cn3ccnc3)(c3ccc(Cl)cc3Cl)O2)cc1 | – | 2%
3 | O=C(OC[C@H]1CO[C@](Cn2ccnc2)(c2ccc(Cl)cc2Cl)O1)c1ccccc1 | – | 40%

The remaining lines, values ahead:

Row | inhibition [1] | inhibition [2] | SMILES
4 | – | 95% | Clc1ccc([C@@]2(Cn3ccnc3)OC[C@H](COc3ccc(Br)cc3)O2)c(Cl)c1
5 | – | 73% | Clc1ccc([C@@]2(Cn3ccnc3)OC[C@H](COc3ccccc3)O2)c(Cl)c1
